In patent US9149038B2, “4-amino-6-(heterocyclic)picolinates and 6-amino-2-(heterocyclic)pyrimidine-4-carboxylates and their use as herbicides” (Dow AgroSciences LLC, priority 2013, dated 2015):
Read-outs that look alike come from different tables or passages of the source.

Tested on: Wheat and Barley and weed species
Test: Post-Emergent Test III: postemergent herbicidal activity in wheat and barley, visual rating after 21 d and probit GR20/GR50/GR80/GR90 (Tables 9-13)
Assay type: in vivo
Details: for pest or weed control at 17.5 g/ha / pest or weed control at 35 g/ha / pest or weed control at 70 g/ha: post-emergence, 504 h
In short: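 Greenhouse plants (~18/17 °C, 14 h photoperiod) at second–third true leaf stage sprayed at 187 L/ha with a high rate and ½× to 1/16× serial dilutions. Visual injury 0–100% versus solvent-blank controls scored at 21 d; GR20, GR50, GR80 and GR90 derived by probit analysis across rates.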

SMILES: COC(=O)c1nc(-c2cc3c(cc2F)OC(F)(F)O3)c(F)c(N)c1Cl [Compound 9]
- GR50 ALOMY (ALOMY black-grass (Alopecurus myosuroides), growth reduction of 50%, probit analysis): 13 g ai/ha
- GR80 ALOMY (ALOMY black-grass (Alopecurus myosuroides), growth reduction of 80%, probit analysis): 26 g ai/ha
- GR90 ALOMY (ALOMY black-grass (Alopecurus myosuroides), growth reduction of 90%, probit analysis): 38 g ai/ha
- GR50 APESV (APESV bentgrass (Apera spica-venti), growth reduction of 50%, probit analysis): 30 g ai/ha
- GR80 APESV (APESV bentgrass (Apera spica-venti), growth reduction of 80%, probit analysis): 61 g ai/ha
- GR90 APESV (APESV bentgrass (Apera spica-venti), growth reduction of 90%, probit analysis): 89 g ai/ha
- GR20 HORVS (HORVS barley, spring (crop), growth reduction of 20%, probit analysis): 3 g ai/ha
- pest or weed control at 17.5 g/ha (Hordeum vulgare, HORVS barley, spring (crop), 17.5 g ai/ha, read-out: Visual Growth Reduction (%) 21 Days After Application HORVS): 60 to 74%
- pest or weed control at 35 g/ha (Hordeum vulgare, HORVS barley, spring (crop), 35 g ai/ha, read-out: Visual Growth Reduction (%) 21 Days After Application HORVS): 85 to 94%
- pest or weed control at 70 g/ha (Hordeum vulgare, HORVS barley, spring (crop), 70 g ai/ha, read-out: Visual Growth Reduction (%) 21 Days After Application HORVS): 85 to 94%
- Visual Growth Reduction (%) 21 Days After Application KCHSC (KCHSC kochia (Kochia scoparia), 17.5 g ai/ha): G (0-29)
- Visual Growth Reduction (%) 21 Days After Application KCHSC (KCHSC kochia (Kochia scoparia), 35 g ai/ha): G (0-29)
- Visual Growth Reduction (%) 21 Days After Application KCHSC (KCHSC kochia (Kochia scoparia), 70 g ai/ha): G (0-29)
- GR50 KCHSC (KCHSC kochia (Kochia scoparia), growth reduction of 50%, probit analysis): >70 g ai/ha
- GR80 KCHSC (KCHSC kochia (Kochia scoparia), growth reduction of 80%, probit analysis): >70 g ai/ha
- GR90 KCHSC (KCHSC kochia (Kochia scoparia), growth reduction of 90%, probit analysis): >70 g ai/ha
- GR50 LOLSS (LOLSS ryegrass, growth reduction of 50%, probit analysis): 70 g ai/ha
- GR80 LOLSS (LOLSS ryegrass, growth reduction of 80%, probit analysis): >70 g ai/ha
- GR90 LOLSS (LOLSS ryegrass, growth reduction of 90%, probit analysis): >70 g ai/ha
- GR50 SETVI (SETVI green foxtail (Setaria viridis), growth reduction of 50%, probit analysis): 21 g ai/ha
- GR80 SETVI (SETVI green foxtail (Setaria viridis), growth reduction of 80%, probit analysis): 46 g ai/ha
- GR90 SETVI (SETVI green foxtail (Setaria viridis), growth reduction of 90%, probit analysis): 71 g ai/ha
- GR20 TRZAS (TRZAS wheat, spring (crop), growth reduction of 20%, probit analysis): 4 g ai/ha
- pest or weed control at 17.5 g/ha (Triticum aestivum, TRZAS wheat, spring (crop), 17.5 g ai/ha, read-out: Visual Growth Reduction (%) 21 Days After Application TRZAS): 60 to 74%
- pest or weed control at 35 g/ha (Triticum aestivum, TRZAS wheat, spring (crop), 35 g ai/ha, read-out: Visual Growth Reduction (%) 21 Days After Application TRZAS): 75 to 84%
- pest or weed control at 70 g/ha (Triticum aestivum, TRZAS wheat, spring (crop), 70 g ai/ha, read-out: Visual Growth Reduction (%) 21 Days After Application TRZAS): 75 to 84%
- pest or weed control at 17.5 g/ha (ALOMY black-grass (Alopecurus myosuroides), 17.5 g ai/ha, read-out: Visual Growth Reduction (%) 21 Days After Application ALOMY): 75 to 84%
- pest or weed control at 35 g/ha (ALOMY black-grass (Alopecurus myosuroides), 35 g ai/ha, read-out: Visual Growth Reduction (%) 21 Days After Application ALOMY): 85 to 94%
- pest or weed control at 70 g/ha (ALOMY black-grass (Alopecurus myosuroides), 70 g ai/ha, read-out: Visual Growth Reduction (%) 21 Days After Application ALOMY): 85 to 94%
- pest or weed control at 17.5 g/ha (APESV bentgrass (Apera spica-venti), 17.5 g ai/ha, read-out: Visual Growth Reduction (%) 21 Days After Application APESV): 0 to 29%
- pest or weed control at 35 g/ha (APESV bentgrass (Apera spica-venti), 35 g ai/ha, read-out: Visual Growth Reduction (%) 21 Days After Application APESV): 60 to 74%
- pest or weed control at 70 g/ha (APESV bentgrass (Apera spica-venti), 70 g ai/ha, read-out: Visual Growth Reduction (%) 21 Days After Application APESV): 75 to 84%
- pest or weed control at 17.5 g/ha (LOLSS ryegrass, 17.5 g ai/ha, read-out: Visual Growth Reduction (%) 21 Days After Application LOLSS): 0 to 29%
- pest or weed control at 35 g/ha (LOLSS ryegrass, 35 g ai/ha, read-out: Visual Growth Reduction (%) 21 Days After Application LOLSS): 0 to 29%
- pest or weed control at 70 g/ha (LOLSS ryegrass, 70 g ai/ha, read-out: Visual Growth Reduction (%) 21 Days After Application LOLSS): 45 to 59%
- pest or weed control at 17.5 g/ha (SETVI green foxtail (Setaria viridis), 17.5 g ai/ha, read-out: Visual Growth Reduction (%) 21 Days After Application SETVI): 45 to 59%
- pest or weed control at 35 g/ha (SETVI green foxtail (Setaria viridis), 35 g ai/ha, read-out: Visual Growth Reduction (%) 21 Days After Application SETVI): 75 to 84%
- pest or weed control at 70 g/ha (SETVI green foxtail (Setaria viridis), 70 g ai/ha, read-out: Visual Growth Reduction (%) 21 Days After Application SETVI): 85 to 94%
